Laboratory results published in the supplement of paper PMC10307832.

Experiments:
Assay in all cases: relative viability (nuclei count vs DMSO), 5 days (fraction); higher = more cells survive
PAC-1 + Bortezomib = compound: C=CCc1cccc(/C=N/NC(=O)CN2CCN(Cc3ccccc3)CC2)c1O [PAC-1] + CC(C)C[C@H](NC(=O)[C@H](Cc1ccccc1)NC(=O)c1cnccn1)B(O)O [Bortezomib] (partner 0.002 µM)
Summary of the method: (§1)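 Relative viability equals treated-well nuclei counts divided by vehicle-well nuclei counts. Counts came from 4× images of lung cancer cell lines grown in 1536-well plates for 5 days after pin-tool dosing on the day after seeding. Dosing used one drug alone or a fixed anchor-drug dose plus five library-drug doses (not always all listed) in √10 steps, and values are medians of duplicate plates.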

BMX-IN-1 + Trametinib = compound: C=CC(=O)Nc1cc(-n2c(=O)ccc3cnc4ccc(-c5ccc(NS(C)(=O)=O)cc5)cc4c32)ccc1C [BMX-IN-1] + CC(=O)Nc1cccc(-n2c(=O)n(C3CC3)c(=O)c3c(Nc4ccc(I)cc4F)n(C)c(=O)c(C)c32)c1 [Trametinib] (partner 0.02 µM)
Summary of the method: as §1

Ibrutinib + Trametinib = compound: C=CC(=O)N1CCC[C@@H](n2nc(-c3ccc(Oc4ccccc4)cc3)c3c(N)ncnc32)C1 [Ibrutinib] + CC(=O)Nc1cccc(-n2c(=O)n(C3CC3)c(=O)c3c(Nc4ccc(I)cc4F)n(C)c(=O)c(C)c32)c1 [Trametinib] (partner 0.02 µM)
Summary of the method: as §1

PAC-1 + AZD7762 = compound: C=CCc1cccc(/C=N/NC(=O)CN2CCN(Cc3ccccc3)CC2)c1O [PAC-1] + NC(=O)Nc1cc(-c2cccc(F)c2)sc1C(=O)N[C@H]1CCCNC1 [AZD7762] (partner 0.2 µM)
Summary of the method: as §1

201T
relative viability (PAC-1 + Bortezomib; first compound 0.02 µM): 1.08
relative viability (PAC-1 + Bortezomib; first compound 0.06325 µM): 1.15
relative viability (PAC-1 + Bortezomib; first compound 0.2 µM): 1.13
relative viability (PAC-1 + Bortezomib; first compound 2 µM): 1.05
relative viability (BMX-IN-1 + Trametinib; first compound 0.02 µM): 0.703
relative viability (BMX-IN-1 + Trametinib; first compound 0.2 µM): 0.733
relative viability (BMX-IN-1 + Trametinib; first compound 0.6325 µM): 0.744
relative viability (BMX-IN-1 + Trametinib; first compound 2 µM): 0.694
relative viability (Ibrutinib + Trametinib; first compound 0.005 µM): 0.721
relative viability (Ibrutinib + Trametinib; first compound 0.01581 µM): 0.708
relative viability (Ibrutinib + Trametinib; first compound 0.05 µM): 0.695
relative viability (Ibrutinib + Trametinib; first compound 0.1581 µM): 0.712
relative viability (Ibrutinib + Trametinib; first compound 0.5 µM): 0.683
relative viability (PAC-1 + AZD7762; first compound 0.02 µM): 0.625
relative viability (PAC-1 + AZD7762; first compound 0.06325 µM): 0.59
relative viability (PAC-1 + AZD7762; first compound 0.2 µM): 0.571
relative viability (PAC-1 + AZD7762; first compound 2 µM): 0.567

A-427
relative viability (PAC-1 + Bortezomib; first compound 0.02 µM): 1.05
relative viability (PAC-1 + Bortezomib; first compound 0.06325 µM): 1.01
relative viability (PAC-1 + Bortezomib; first compound 0.2 µM): 0.963
relative viability (PAC-1 + Bortezomib; first compound 2 µM): 0.958
relative viability (BMX-IN-1 + Trametinib; first compound 0.02 µM): 0.691
relative viability (BMX-IN-1 + Trametinib; first compound 0.2 µM): 0.727
relative viability (BMX-IN-1 + Trametinib; first compound 0.6325 µM): 0.79
relative viability (BMX-IN-1 + Trametinib; first compound 2 µM): 0.722
relative viability (Ibrutinib + Trametinib; first compound 0.005 µM): 0.654
relative viability (Ibrutinib + Trametinib; first compound 0.01581 µM): 0.777
relative viability (Ibrutinib + Trametinib; first compound 0.05 µM): 0.782
relative viability (Ibrutinib + Trametinib; first compound 0.5 µM): 0.694
relative viability (PAC-1 + AZD7762; first compound 0.02 µM): 0.774
relative viability (PAC-1 + AZD7762; first compound 0.06325 µM): 0.734
relative viability (PAC-1 + AZD7762; first compound 0.2 µM): 0.713
relative viability (PAC-1 + AZD7762; first compound 2 µM): 0.702

ABC-1
relative viability (PAC-1 + Bortezomib; first compound 0.02 µM): 0.336
relative viability (PAC-1 + Bortezomib; first compound 0.06325 µM): 0.371
relative viability (PAC-1 + Bortezomib; first compound 0.2 µM): 0.258
relative viability (PAC-1 + Bortezomib; first compound 2 µM): 0.319
relative viability (PAC-1 + AZD7762; first compound 0.02 µM): 0.952
relative viability (PAC-1 + AZD7762; first compound 0.06325 µM): 0.871
relative viability (PAC-1 + AZD7762; first compound 0.2 µM): 0.628
relative viability (PAC-1 + AZD7762; first compound 2 µM): 0.975

BEN
relative viability (PAC-1 + Bortezomib; first compound 0.02 µM): 0.742
relative viability (PAC-1 + Bortezomib; first compound 0.06325 µM): 0.77
relative viability (PAC-1 + Bortezomib; first compound 0.2 µM): 0.797
relative viability (PAC-1 + Bortezomib; first compound 2 µM): 0.725
relative viability (BMX-IN-1 + Trametinib; first compound 0.02 µM): 1.15
relative viability (BMX-IN-1 + Trametinib; first compound 0.2 µM): 0.909
relative viability (BMX-IN-1 + Trametinib; first compound 0.6325 µM): 0.96
relative viability (BMX-IN-1 + Trametinib; first compound 2 µM): 1.03
relative viability (Ibrutinib + Trametinib; first compound 0.005 µM): 0.897
relative viability (Ibrutinib + Trametinib; first compound 0.05 µM): 1.06
relative viability (Ibrutinib + Trametinib; first compound 0.1581 µM): 0.974
relative viability (Ibrutinib + Trametinib; first compound 0.5 µM): 0.794
relative viability (PAC-1 + AZD7762; first compound 0.02 µM): 0.712
relative viability (PAC-1 + AZD7762; first compound 0.06325 µM): 0.626
relative viability (PAC-1 + AZD7762; first compound 0.2 µM): 0.618
relative viability (PAC-1 + AZD7762; first compound 2 µM): 0.828

CAL-12T
relative viability (PAC-1 + Bortezomib; first compound 0.02 µM): 0.95
relative viability (PAC-1 + Bortezomib; first compound 0.06325 µM): 1.09
relative viability (PAC-1 + Bortezomib; first compound 0.2 µM): 1.1
relative viability (PAC-1 + Bortezomib; first compound 2 µM): 0.925
relative viability (BMX-IN-1 + Trametinib; first compound 0.02 µM): 0.342
relative viability (BMX-IN-1 + Trametinib; first compound 0.2 µM): 0.318
relative viability (BMX-IN-1 + Trametinib; first compound 0.6325 µM): 0.31
relative viability (BMX-IN-1 + Trametinib; first compound 2 µM): 0.36
relative viability (Ibrutinib + Trametinib; first compound 0.005 µM): 0.236
relative viability (Ibrutinib + Trametinib; first compound 0.01581 µM): 0.297
relative viability (Ibrutinib + Trametinib; first compound 0.05 µM): 0.3
relative viability (Ibrutinib + Trametinib; first compound 0.1581 µM): 0.382
relative viability (Ibrutinib + Trametinib; first compound 0.5 µM): 0.298
relative viability (PAC-1 + AZD7762; first compound 0.02 µM): 0.579
relative viability (PAC-1 + AZD7762; first compound 0.06325 µM): 0.621
relative viability (PAC-1 + AZD7762; first compound 0.2 µM): 0.626
relative viability (PAC-1 + AZD7762; first compound 2 µM): 0.6

COR-L23
relative viability (PAC-1 + Bortezomib; first compound 0.02 µM): 1.1
relative viability (PAC-1 + Bortezomib; first compound 0.06325 µM): 0.93
relative viability (PAC-1 + Bortezomib; first compound 0.2 µM): 0.913
relative viability (PAC-1 + Bortezomib; first compound 2 µM): 0.966
relative viability (BMX-IN-1 + Trametinib; first compound 0.02 µM): 0.71
relative viability (BMX-IN-1 + Trametinib; first compound 0.2 µM): 0.695
relative viability (BMX-IN-1 + Trametinib; first compound 0.6325 µM): 0.623
relative viability (BMX-IN-1 + Trametinib; first compound 2 µM): 0.662
relative viability (Ibrutinib + Trametinib; first compound 0.005 µM): 0.393
relative viability (Ibrutinib + Trametinib; first compound 0.01581 µM): 0.574
relative viability (Ibrutinib + Trametinib; first compound 0.05 µM): 0.621
relative viability (Ibrutinib + Trametinib; first compound 0.1581 µM): 0.647
relative viability (Ibrutinib + Trametinib; first compound 0.5 µM): 0.756

COR-L 105
relative viability (PAC-1 + Bortezomib; first compound 0.02 µM): 0.71
relative viability (PAC-1 + Bortezomib; first compound 0.06325 µM): 0.695
relative viability (PAC-1 + Bortezomib; first compound 0.2 µM): 0.757
relative viability (PAC-1 + Bortezomib; first compound 2 µM): 0.792
relative viability (BMX-IN-1 + Trametinib; first compound 0.02 µM): 0.427
relative viability (BMX-IN-1 + Trametinib; first compound 0.2 µM): 0.444
relative viability (BMX-IN-1 + Trametinib; first compound 0.6325 µM): 0.422
relative viability (BMX-IN-1 + Trametinib; first compound 2 µM): 0.403
relative viability (Ibrutinib + Trametinib; first compound 0.005 µM): 0.381
relative viability (Ibrutinib + Trametinib; first compound 0.01581 µM): 0.384
relative viability (Ibrutinib + Trametinib; first compound 0.05 µM): 0.407
relative viability (Ibrutinib + Trametinib; first compound 0.1581 µM): 0.419
relative viability (Ibrutinib + Trametinib; first compound 0.5 µM): 0.339

Calu-6
relative viability (PAC-1 + Bortezomib; first compound 0.02 µM): 1.07
relative viability (PAC-1 + Bortezomib; first compound 0.06325 µM): 1.09
relative viability (PAC-1 + Bortezomib; first compound 0.2 µM): 1
relative viability (PAC-1 + Bortezomib; first compound 2 µM): 1.1

ChaGo-K-1
relative viability (PAC-1 + Bortezomib; first compound 0.02 µM): 0.941
relative viability (PAC-1 + Bortezomib; first compound 0.06325 µM): 1.1
relative viability (PAC-1 + Bortezomib; first compound 0.2 µM): 1.16
relative viability (PAC-1 + Bortezomib; first compound 2 µM): 0.88
relative viability (BMX-IN-1 + Trametinib; first compound 0.02 µM): 0.735
relative viability (BMX-IN-1 + Trametinib; first compound 0.2 µM): 0.986
relative viability (BMX-IN-1 + Trametinib; first compound 0.6325 µM): 0.891
relative viability (BMX-IN-1 + Trametinib; first compound 2 µM): 0.91
relative viability (Ibrutinib + Trametinib; first compound 0.005 µM): 0.907
relative viability (Ibrutinib + Trametinib; first compound 0.01581 µM): 0.879
relative viability (Ibrutinib + Trametinib; first compound 0.05 µM): 0.922
relative viability (Ibrutinib + Trametinib; first compound 0.1581 µM): 0.857
relative viability (Ibrutinib + Trametinib; first compound 0.5 µM): 0.854
relative viability (PAC-1 + AZD7762; first compound 0.02 µM): 0.858
relative viability (PAC-1 + AZD7762; first compound 0.06325 µM): 0.907
relative viability (PAC-1 + AZD7762; first compound 0.2 µM): 0.861
relative viability (PAC-1 + AZD7762; first compound 2 µM): 0.9

EBC-1
relative viability (PAC-1 + Bortezomib; first compound 0.02 µM): 0.513
relative viability (PAC-1 + Bortezomib; first compound 0.06325 µM): 0.544
relative viability (PAC-1 + Bortezomib; first compound 0.2 µM): 0.633
relative viability (PAC-1 + Bortezomib; first compound 2 µM): 0.53

EKVX
relative viability (PAC-1 + Bortezomib; first compound 0.02 µM): 1.02
relative viability (PAC-1 + Bortezomib; first compound 0.06325 µM): 1.04
relative viability (PAC-1 + Bortezomib; first compound 0.2 µM): 1.03
relative viability (PAC-1 + Bortezomib; first compound 2 µM): 0.991
relative viability (BMX-IN-1 + Trametinib; first compound 0.02 µM): 0.308
relative viability (BMX-IN-1 + Trametinib; first compound 0.2 µM): 0.39
relative viability (BMX-IN-1 + Trametinib; first compound 0.6325 µM): 0.375
relative viability (BMX-IN-1 + Trametinib; first compound 2 µM): 0.369
relative viability (Ibrutinib + Trametinib; first compound 0.005 µM): 0.322
relative viability (Ibrutinib + Trametinib; first compound 0.01581 µM): 0.343
relative viability (Ibrutinib + Trametinib; first compound 0.05 µM): 0.392
relative viability (Ibrutinib + Trametinib; first compound 0.5 µM): 0.215
relative viability (PAC-1 + AZD7762; first compound 0.02 µM): 0.638
relative viability (PAC-1 + AZD7762; first compound 0.06325 µM): 0.75
relative viability (PAC-1 + AZD7762; first compound 0.2 µM): 0.664
relative viability (PAC-1 + AZD7762; first compound 2 µM): 0.62

EMC-BAC-2
relative viability (PAC-1 + Bortezomib; first compound 0.02 µM): 1.09
relative viability (PAC-1 + Bortezomib; first compound 0.06325 µM): 1.04
relative viability (PAC-1 + Bortezomib; first compound 0.2 µM): 1.11
relative viability (PAC-1 + Bortezomib; first compound 2 µM): 1.13
relative viability (BMX-IN-1 + Trametinib; first compound 0.02 µM): 0.827
relative viability (BMX-IN-1 + Trametinib; first compound 0.2 µM): 0.906
relative viability (BMX-IN-1 + Trametinib; first compound 0.6325 µM): 0.96
relative viability (BMX-IN-1 + Trametinib; first compound 2 µM): 1.04
relative viability (Ibrutinib + Trametinib; first compound 0.005 µM): 0.836
relative viability (Ibrutinib + Trametinib; first compound 0.01581 µM): 0.895
relative viability (Ibrutinib + Trametinib; first compound 0.5 µM): 1.03
relative viability (PAC-1 + AZD7762; first compound 0.02 µM): 1.13
relative viability (PAC-1 + AZD7762; first compound 0.06325 µM): 1.24
relative viability (PAC-1 + AZD7762; first compound 0.2 µM): 1.19
relative viability (PAC-1 + AZD7762; first compound 2 µM): 1.15
